Assay results taken from patent US20250353835A1, “N-TETRAZOLYL ARYL UREA-BASED DERIVATIVES, PREPARATION METHOD THEREFOR, AND USE THEREOF” (Hangzhou Yirui Pharmaceutical Technology Co., Ltd, priority 2022, published 2025).

Biological target: T1, human B1R (Homo sapiens, UniProt P46663)
T1 construct: host or cells: HEK293
T1 sequence (P46663 1-353): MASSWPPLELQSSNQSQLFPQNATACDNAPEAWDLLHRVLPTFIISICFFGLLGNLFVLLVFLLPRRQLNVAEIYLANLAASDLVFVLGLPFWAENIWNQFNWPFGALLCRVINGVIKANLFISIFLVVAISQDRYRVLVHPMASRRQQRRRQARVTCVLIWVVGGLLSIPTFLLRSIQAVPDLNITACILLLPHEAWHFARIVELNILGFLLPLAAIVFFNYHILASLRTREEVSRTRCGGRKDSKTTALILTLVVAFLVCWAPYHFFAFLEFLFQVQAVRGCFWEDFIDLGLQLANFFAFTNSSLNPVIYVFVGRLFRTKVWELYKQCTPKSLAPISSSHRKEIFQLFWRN
Experiment: FLIPR calcium ion flux assay, inhibitory activity against human B1R
Format: cell-based
Settings: HEK293 cells stably expressing human B1R; agonist [Lys-des-Arg9]-Bradykinin 4.6 nM (EC80); FLIPR method
Experimental: The inhibitory activity of the compounds against human B1R and B2R channels was determined by calcium ion flux assay using fluorometric imaging plate reader (FLIPR method). See literatures of Lee, Chen et al. for the method. [Lee et al. 2008][Chen et al. 2011]
1. Cell culture: HEK293 recombinant cell lines (WuXi AppTec, Shanghai, China) stably expressing human B1R and B2R were cultured in DMEM (Invitrogen, Cat #11965) medium containing 10% calf serum (Excellbio, Cat #FSP500), 5 μg/ml Geneticin (Invitrogen, Cat #10131) and Penicillin/Streptomycin (Invitrogen, Cat #15140). The incubator conditions were 37° C. and ambient humidity containing 5% CO2.
2. Preparation of the cell assay plate: B1R and B2R cells were seeded in a 384-well assay plate (Greiner, Cat #781090) at a density of 20,000 cells per well (20 μl/well), and cultured overnight at 37° C. in an incubator with 5% CO2. The next day, Fluo-4 Direct™ Loading Buffer (containing 5 mM Probenicid) containing 2× (8 μM) Fluo-4 Direct (Invitrogen, Cat #F10471) was added to each of the wells. The cells were cultured at 37° C. for 50 min, and then culture for at the room temperature 10 min.
3. Preparation of the compound assay plate: The compound was dissolved in 100% DMSO to make a 30 mM stock solution and stored at −20° C. On the day of use, the stock solution of the compound was thawed at the room temperature. Each of the compounds was serially diluted at 1:5 in DMSO culture medium with a starting concentration of 30 μM for 9 concentration points on a 384-well plate. Each of compounds was diluted in duplicate for testing. [Des-Arg10]-HOE140 was used as a positive control compound, and diluted in the same manner with a starting concentration of 3 μM.
4. FLIPR assay: The cell assay plate was placed in a FLIPR instrument ([…]). The compounds in the compound assay plate were added to the corresponding wells on the cell assay plate (10 μL/well) using an automatic program. The calcium ion fluorescence signal was recorded to determine whether the compound may have agonist activity. After 10 minutes, a B1R agonist [Lys-des-Arg9]-Bradykinin2 (10 μL/well) with a final concentration of 4.6 nM (EC80) was added to each of the wells to stimulate the generation of intracellular calcium ion flux signals. The Ca^++-dependent fluorescence signal was continuously monitored at a wavelength of 538 nm to analyze the inhibitory activity of the compound.
5. Data analysis: The data was collected and analyzed by a FLIPR program. The inhibitory (or agonist) activity of the compound at each concentration was evaluated by the fluorescence peak. The IC50 values of the compounds were calculated using EXCEL and PRISM programs.

| Structure (SMILES) | IC50 [µM] |
| --- | --- |
| COc1ccc(-c2ccc(NC(=O)N3CCC(C)(C)CC3)cc2-c2nn[nH]n2)cc1OC [Compound 12, N-(3′,4′-dimethoxy-2-(2H-tetrazol-5-yl)-[1,1′-biphenyl]-4-yl)-4,4-dimethylpiperidine-1-carboxamide] | 0.148 |
| CCOc1ccc(-c2ccc(NC(=O)N3CCC(C(C)(C)C)CC3)cc2-c2nn[nH]n2)cn1 [Compound 6, 4-(tert-butyl)-N-(4-(6-ethoxypyrid-3-yl)-3-(2H-tetrazol-5-yl)phenyl)piperidine-1-carboxamide] | 0.0236 |
| CCOc1ccc(-c2ncc(NC(=O)N3CCC(C(C)(C)C)CC3)cc2-c2nn[nH]n2)cn1 [Compound 7, 4-(tert-butyl)-N-(6′-ethoxy-3-(2H-tetrazol-5-yl)-[2,3′-bipyridyl]-5-yl)piperidine-1-carboxamide] | 0.0578 |
| Cn1ncc2cc(-c3ccc(NC(=O)N4CCC(C(C)(C)C)CC4)cc3-c3nn[nH]n3)ccc21 [Compound 10, 4-(tert-butyl)-N-(4-(1-methyl-1H-indazol-5-yl)-3-(2H-tetrazol-5-yl)phenyl)piperidine-1-carboxamide] | 0.0183 |
| COc1ccc(-c2ccc(NC(=O)N3CCC(C)CC3)cc2-c2nn[nH]n2)cc1Cl [Compound 22, N-(3′-chloro-4′-methoxy-2-(2H-tetrazol-5-yl)-[1,1′-biphenyl]-4-yl)-4-methylpiperidine-1-carboxamide] | 0.0302 |
| COc1ccc(-c2ccc(NC(=O)N3CCC(C(C)(C)C)CC3)cc2-c2nn[nH]n2)cc1OC [Compound 1, 4-(tert-butyl)-N-(3′,4′-dimethoxy-2-(2H-tetrazol-5-yl)-[1,1′-biphenyl]-4-yl)piperidine-1-carboxamide] | 0.04 |
| CCOC(=O)c1ccc(NC(=O)N2CCC(C(F)(F)F)CC2)cc1-c1nn[nH]n1 [Compound 30] | 0.0354 |
| COc1ccc(-c2c(F)cc(NC(=O)N3CCC(C(F)(F)F)CC3)cc2-c2nn[nH]n2)cc1OC [Compound 26, N-(2-fluoro-3′,4′-dimethoxy-6-(2H-tetrazol-5-yl)-[1,1′-biphenyl]-4-yl)-4-(trifluoromethyl)piperidine-1-carboxamide] | 0.0544 |
| O=C(OC1CCCCC1)c1c(F)cc(NC(=O)N2CCC(C(F)(F)F)CC2)cc1-c1nn[nH]n1 [Compound 29, cyclohexyl 2-fluoro-6-(2H-tetrazol-5-yl)-4-(4-(trifluoromethyl)piperidine-1-formamido)benzoate] | 0.0346 |
| COc1ccc(-c2c(F)cc(NC(=O)N3CCC(C(C)(C)C)CC3)cc2-c2nn[nH]n2)cc1Cl [Compound 33, 4-(tert-butyl)-N-(3′-chloro-2-fluoro-4′-methoxy-6-(2H-tetrazol-5-yl)-[1,1′-biphenyl]-4-yl)piperidine-1-carboxamide] | 0.0146 |
| COc1ccc(-c2ccc(NC(=O)N3CCC(C(F)(F)F)CC3)cc2-c2nn[nH]n2)cc1Cl [Compound 28, N-(3′-chloro-4′-methoxy-2-(2H-tetrazol-5-yl)-[1,1′-biphenyl]-4-yl)-4-(trifluoromethyl)piperidine-1-carboxamide] | 0.0245 |
| COc1ccc(-c2ccc(NS(=O)(=O)N3CCC(C)CC3)cc2-c2nn[nH]n2)cc1OC [Compound 19, N-(3′,4′-dimethoxy-2-(2H-tetrazol-5-yl)-[1,1′-biphenyl]-4-yl)-4-methylpiperidine-1-sulfamide] | 1.14 |
| COc1ccc(-c2ncc(NC(=O)N3CCC(C(C)(C)C)CC3)cc2-c2nn[nH]n2)cc1OC [Compound 35, 4-(tert-butyl)-N-(6-(3,4-dimethoxyphenyl)-5-(2H-tetrazol-5-yl)pyrid-3-yl)piperidine-1-carboxamide] | 0.0929 |
| Cn1ncc2cc(-c3c(F)cc(NC(=O)N4CCC(C(F)(F)F)CC4)cc3-c3nn[nH]n3)ccc21 [Compound 34, N-(3-fluoro-4-(1-methyl-1H-indazol-5-yl)-5-(2H-tetrazol-5-yl)phenyl)-4-(trifluoromethyl)piperidine-1-carboxamide] | 0.0214 |
| COc1ccc(-c2ccc(NC(=O)N3CCC4CCOC4C3)cc2-c2nn[nH]n2)cc1OC (stereo not drawn) [Compound 4, N-(3′,4′-dimethoxy-2-(2H-tetrazol-5-yl)-[1,1′-biphenyl]-4-yl)hexahydrofuro[2,3-c]pyridine-6(2H)-carboxamide] | 5.32 |

Continued, values first:

| IC50 [µM] | Structure (SMILES) |
| --- | --- |
| 0.106 | CC(C)(C)C1CCN(C(=O)Nc2ccc(C(=O)OC3CCOC3)c(-c3nn[nH]n3)c2)CC1 (stereo not drawn) [Compound 44, tetrahydrofuran-3-yl 4-(4-(tert-butyl)piperidine-1-formamido)-2-(2H-tetrazol-5-yl)benzoate] |
| 0.0076 | CC(C)Oc1ccc(-c2c(F)cc(NC(=O)N3CCC(C(C)(C)C)CC3)cc2-c2nn[nH]n2)cn1 [Compound 56, 4-(tert-butyl)-N-(3-fluoro-4-(6-isopropoxypyrid-3-yl)-5-(2H-tetrazol-5-yl)phenyl)piperidine-1-carboxamide] |
| 0.0178 | Cc1ccc(-c2ccc(NC(=O)N3CCC(C(C)(C)C)CC3)cc2-c2nn[nH]n2)cn1 [Compound 51, 4-(tert-butyl)-N-(4-(6-methylpyrid-3-yl)-3-(2H-tetrazol-5-yl)phenyl)piperidine-1-carboxamide] |
| 0.109 | CC(C)(C)C1CCN(C(=O)Nc2ccc(-c3ccc(C(F)F)nc3)c(-c3nn[nH]n3)c2)CC1 [Compound 42, 4-(tert-butyl)-N-(4-(6-(difluoromethyl)pyrid-3-yl)-3-(2H-tetrazol-5-yl)phenyl)piperidine-1-carboxamide] |
| 0.0939 | Cc1ccc(NC(=O)c2ccc(NC(=O)N3CCC(C(C)(C)C)CC3)cc2-c2nn[nH]n2)nc1 [Compound 47, 4-(tert-butyl)-N-(4-((5-methylpyridin-2-yl)aminoformyl)-3-(2H-tetrazol-5-yl)phenyl)piperidine-1-carboxamide] |
| 0.0952 | CC(C)(C)C1CCN(C(=O)Nc2ccc(C(=O)OC3CCCC3)c(-c3nn[nH]n3)c2)CC1 [Compound 43, cyclopentyl 4-(4-(tert-butyl)piperidine-1-formamido)-2-(2H-tetrazol-5-yl)benzoate] |
| 0.0481 | CC(C)(C)C1CCN(C(=O)Nc2cc(F)c(C(=O)NC3CCCC3)c(-c3nn[nH]n3)c2)CC1 [Compound 53, 4-(tert-butyl)-N-(4-(cyclopentylaminoformyl)-3-fluoro-5-(2H-tetrazol-5-yl)phenyl)piperidine-1-carboxamide] |
| 0.303 | CC(C)(C)[C@H]1CC[C@@H](NC(=O)Nc2ccc(-c3ccc4c(c3)OCO4)c(-c3nn[nH]n3)c2)CC1 [Compound 70, 1-(4-(benzo[d][1,3]dioxolan-5-yl)-3-(2H-tetrazol-5-yl)phenyl)-3-((cis)-4-(tert-butyl)cyclohexyl)urea] |
| 0.372 | COc1cncc(-c2ccc(NC(=O)N3CCC(C(C)(C)C)CC3)cc2-c2nn[nH]n2)c1 [Compound 48, 4-(tert-butyl)-N-(4-(5-methoxypyrid-3-yl)-3-(2H-tetrazol-5-yl)phenyl)piperidine-1-carboxamide] |
| 0.0349 | Cc1cc(-c2ccc(NC(=O)N3CCC(C(C)(C)C)CC3)cc2-c2nn[nH]n2)ccn1 [Compound 52, 4-(tert-butyl)-N-(4-(2-methylpyridin-4-yl)-3-(2H-tetrazol-5-yl)phenyl)piperidine-1-carboxamide] |
| 2.04 | CC(C)(C)C1CCN(C(=O)Nc2ccc(C3CCOCC3)c(-c3nn[nH]n3)c2)CC1 [Compound 40, 4-(tert-butyl)-N-(4-(tetrahydro-2H-pyran-4-yl)-3-(2H-tetrazol-5-yl)phenyl)piperidine-1-carboxamide] |
| 0.0922 | COc1ccc(-c2ccc(NC(=O)N[C@H]3CC[C@@H](C)CC3)cc2-c2nn[nH]n2)cc1OC [Compound 61, 1-(3′,4′-dimethoxy-2-(2H-tetrazol-5-yl)-[1,1′-biphenyl]-4-yl)-3-(4-methylcyclohexyl)urea] |
